Reference: publication PMC5259791 (Scientific Reports, 2017)

Assays:
[1] = target: T1, PPARδ (Homo sapiens, UniProt Q03181); assay: SPR on immobilized PPARδ; type: binding
T1 construct: purchased Tebu-Bio
T1 sequence (Q03181 1-441): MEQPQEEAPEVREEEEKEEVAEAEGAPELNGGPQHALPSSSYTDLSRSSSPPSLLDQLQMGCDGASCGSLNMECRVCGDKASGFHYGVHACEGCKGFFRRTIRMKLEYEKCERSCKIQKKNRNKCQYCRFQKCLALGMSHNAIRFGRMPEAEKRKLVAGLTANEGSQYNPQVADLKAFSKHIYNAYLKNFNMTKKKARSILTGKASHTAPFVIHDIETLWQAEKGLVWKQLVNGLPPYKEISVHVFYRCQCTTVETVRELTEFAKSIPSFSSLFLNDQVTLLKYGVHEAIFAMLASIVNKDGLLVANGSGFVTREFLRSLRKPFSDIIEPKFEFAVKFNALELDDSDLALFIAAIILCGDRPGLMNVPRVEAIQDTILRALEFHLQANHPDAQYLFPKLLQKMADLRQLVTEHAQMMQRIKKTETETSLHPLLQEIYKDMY
Description: In order to evaluate if 1 acts as a selective ligand of PPARγ, SPR analyses were also carried out on immobilized PPARα and PPARδ, two proteins structurally and functionally related to PPARγ[23][24].
(§1) SPR analyses were carried out on a BIACORE 3000 instrument (GE-Healthcare). PPARα, PPARγ, PPARδ and HSP60 surfaces were prepared on research−grade CM5 sensor chips (GE Healthcare). Proteins (100 μg/ml in 10 mM CH3COONa, pH 5.0) were immobilized using a standard amine−coupling protocol, to obtain densities of 3–5 kRU. Testing compounds were dissolved in 100% DMSO to obtain 4 mM solutions, and then diluted in PBS containing variable amounts of DMSO, achieving a final DMSO concentration of 0.1%. For each molecule a five−point concentration series (25 nM, 65 nM, 150 nM, 400 nM, 1 μM) was set up. SPR experiments and data elaboration were carried out as reported elsewhere.

[2] = target: T2, PPARγ1 C285A mutant (Homo sapiens, UniProt P37231, C313A); assay: PPRE-luciferase transactivation in HEK293T cells co-transfected with PPARγ1 C285A mutant; type: cell-based; settings: C285A mutant versus wild type receptor, 24 h
T2 construct: expressed in transfected cells; host or cells: HEK293T (transient); vectors from Takuma Shiraki
T2 sequence (P37231 1-477 isoform P37231-2 C285A): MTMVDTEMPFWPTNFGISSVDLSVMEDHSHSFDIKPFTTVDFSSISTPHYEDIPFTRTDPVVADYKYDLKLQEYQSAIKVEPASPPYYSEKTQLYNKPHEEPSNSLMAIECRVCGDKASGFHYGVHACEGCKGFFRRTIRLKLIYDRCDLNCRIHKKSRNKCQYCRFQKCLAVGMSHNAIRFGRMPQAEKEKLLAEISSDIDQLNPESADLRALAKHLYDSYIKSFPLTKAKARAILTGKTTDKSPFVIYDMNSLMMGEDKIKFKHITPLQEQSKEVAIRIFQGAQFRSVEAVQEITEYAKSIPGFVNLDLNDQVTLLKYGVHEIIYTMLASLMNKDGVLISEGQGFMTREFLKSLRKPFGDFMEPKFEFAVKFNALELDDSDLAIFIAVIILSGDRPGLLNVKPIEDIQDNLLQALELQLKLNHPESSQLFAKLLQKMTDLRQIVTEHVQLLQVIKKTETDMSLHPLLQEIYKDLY
From the text: (b) Human HEK293T cells were co-transfected with the PPRE-luciferase reporter gene and the wild-type PPARγ1 or its mutant version (C285A).
HEK293 cells that stably express an exogenous Flag-tagged PPARγ from a transfected PCDNA-3 vector carrying a complete PPARγ cDNA were used for transfection experiments. The PPRE-Luc plasmid contains a luciferase reporter gene under the transcriptional control of three copies of the PPRE (Peroxisome Proliferator Response Element) derived from Acyl-CoA oxidase gene fused upstream to the herpes simplex thymidine kinase (TK) promoter, as described. […] Transient transfection assays were carried out as described in ref. [44]. […] In this case, the experiments were carried out into basal HEK293T cells and the RSV-β-Gal plasmid was used as control for transfection efficiency. […] The wild type and mutant PPARγ containing expression vectors were kindly provided by Dott. Takuma Shiraki. At least three independent experiments were performed for each transfection carried out in duplicate. Luciferase activity was normalized to β-galactosidase activity and reported as fold-induction.

[3] = target: T3, PPARγ LBD (Homo sapiens, UniProt P37231); assay: SPR on immobilized PPARγ LBD; type: binding
T3 construct: Recombinant human PPARγ-LBD, consisting of the region 195–477 of PPARγ; purchased Bertin-Pharma
T3 sequence (P37231 195-477 isoform P37231-2): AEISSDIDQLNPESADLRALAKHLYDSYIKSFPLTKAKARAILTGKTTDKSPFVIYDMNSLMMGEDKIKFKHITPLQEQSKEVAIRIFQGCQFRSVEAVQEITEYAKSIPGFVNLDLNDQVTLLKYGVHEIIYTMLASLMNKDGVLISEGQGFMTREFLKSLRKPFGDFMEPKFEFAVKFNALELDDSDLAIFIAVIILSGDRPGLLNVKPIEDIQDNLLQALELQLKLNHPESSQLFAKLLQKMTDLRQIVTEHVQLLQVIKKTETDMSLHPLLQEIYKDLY
Description: (§2) Conversely, no affinity of the diterpene towards Hsp60 was observed (Fig. 2c).
as §1

[4] = tested on: HT-29 cells; assay: HT-29 cell growth (cell counting)
Description: Data are the mean ± SD of three independent experiments performed in duplicate giving similar results. Significance is indicated as *p ≤ 0.05, **p ≤ 0.01 and ***p ≤ 0.001. (b) HT29 cells were seeded in 24-well in order to reach the density of cells/cm^2 in standard conditions (10^5 cells). […] The experiments were performed in triplicate and the data expressed as mean ± SD. Significance is indicated as **p ≤ 0.01 and ***p ≤ 0.001.

[5] = target: T4, Hsp60 (Homo sapiens, UniProt P10809); assay: SPR on immobilized Hsp60; type: binding
T4 construct: purchased Tebu-Bio
T4 sequence (P10809 27-573): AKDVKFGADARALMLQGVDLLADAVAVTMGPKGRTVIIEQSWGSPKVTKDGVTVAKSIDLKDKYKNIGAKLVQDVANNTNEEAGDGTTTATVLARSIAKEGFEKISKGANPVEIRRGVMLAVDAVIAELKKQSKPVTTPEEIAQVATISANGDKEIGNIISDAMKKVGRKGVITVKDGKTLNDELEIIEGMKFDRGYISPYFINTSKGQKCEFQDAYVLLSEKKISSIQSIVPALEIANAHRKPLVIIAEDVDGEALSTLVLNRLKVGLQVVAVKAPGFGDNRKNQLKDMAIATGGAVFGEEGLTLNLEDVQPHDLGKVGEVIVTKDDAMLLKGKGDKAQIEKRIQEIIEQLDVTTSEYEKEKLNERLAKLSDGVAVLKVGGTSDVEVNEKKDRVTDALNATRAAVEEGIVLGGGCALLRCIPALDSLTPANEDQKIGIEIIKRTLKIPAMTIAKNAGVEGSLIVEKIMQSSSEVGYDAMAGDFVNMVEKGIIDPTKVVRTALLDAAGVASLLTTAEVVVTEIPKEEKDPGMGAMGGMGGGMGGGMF
Description: as §2, §1

[6] = target: T4, Hsp60; assay: MS-based peptide mapping of Hsp60 incubated with 1; settings: trypsin digestion, LC-MS/MS
Description: PPARγ-LBD and Hsp60 were incubated with a 2:1 molar excess of 1 under stirring for 15 min in PBS at 37 °C. Eluted proteins were loaded on a mono-dimensional 12% SDS-PAGE, stained with Brilliant Blue G-Colloidal, reduced, and digested by trypsin. The resulting fragments were extracted and analyzed by LC-MS/MS using the same instrument and protocol described before. Peptide identification was performed by MS and MS/MS data using Mascot (Matrix Science) to interrogate the Swiss Prot non-redundant protein database.

C=C1C(=O)C23CCC4C(C(=O)OC)CC(O)CC4(C)C2CCC1C3 (stereo not shown) [Compound 1, 15-ketoatractyligenin methyl ester]
binding to PPARδ [1]: no significant binding
luciferase activity with C285A mutant [2]: even lower luciferase activity
Kd [3]: 39.2 ± 3.9 nM
inhibition of cell growth ([4]; 1, 5 and 10 μM for 24 and 48 h): more pronounced dosage-dependent inhibition of cell growth than Rosiglitazone
cell counts after GW9662 pre-treatment versus compound alone ([4]; GW9662 10 μM 6 h, then compound 10 μM for 24 and 48 h): increased cell counts
affinity towards Hsp60 [5]: no affinity
covalent modification of Hsp60 [6]: no peptide covalently modified
